From patent US20060211755A1, “3-oxo-1, 3-dihydro-indazole-2-carboxylic acid amide derivatives as phospholipase inhibitors” (Eli Lilly and Company Patent Division, priority 2003, published 2006)

Q: Which melting point does the source give for `CCCNC(=O)n1[nH]c2ccccc2c1=O` [Example 1, 3-Oxo-1,3-dihydro-indazole-2-carboxylic acid propylamide] here?
A: The melting point was 153 to 155 °C.

Q: With `CCCCCNC(=O)n1[nH]c2ccccc2c1=O` [Example 2, 3-Oxo-1,3-dihydro-indazole-2-carboxylic acid pentylamide] as the molecule, how does the melting point read?
A: Its melting point is 119 to 120 °C.

Q: With `CC(C)CCCCNC(=O)n1[nH]c2ccccc2c1=O` [Example 5, 3-Oxo-1,3-dihydro-indazole-2-carboxylic acid (5-methyl-hexyl)-amide] as the molecule, how does the melting point read?
A: The melting point was 134 to 136 °C.

Q: Which melting point does the source give for `Cc1ccccc1CNC(=O)n1[nH]c2ccccc2c1=O` [Example 16, 3-Oxo-1,3-dihydro-indazole-2-carboxylic acid 2-methyl-benzylamide] here?
A: The melting point was 166 to 168 °C.

Q: For `Cc1cccc(CNC(=O)n2[nH]c3ccccc3c2=O)c1` [Example 17, 3-Oxo-1,3-dihydro-indazole-2-carboxylic acid 3-methyl-benzylamide], which melting point is on record?
A: Its melting point is 179 to 180 °C.

Q: Which melting point does the source give for `COc1cccc(CNC(=O)n2[nH]c3ccccc3c2=O)c1` [Example 24, 3-Oxo-1,3-dihydro-indazole-2-carboxylic acid 3-methoxy-benzylamide] here?
A: The melting point was 186 to 188 °C.

Q: With `Cc1ccc2c(=O)n(C(=O)NCc3ccccc3C)[nH]c2c1` [Example 45, 6-Methyl-3-oxo-1,3-dihydro-indazole-2-carboxylic acid 2-methyl-benzylamide] as the molecule, how does the melting point read?
A: Its melting point is 235 °C (dec.).

Q: Which melting point does the source give for `Cc1ccccc1CNC(=O)n1[nH]c2cccc(C(=O)O)c2c1=O` [Example 52, 2-(2-Methyl-benzylcarbamoyl)-3-oxo-2,3-dihydro-1H-indazole-4-carboxylic acid] here?
A: The melting point was > 250 °C.

Q: Which melting point does the source give for `Cc1ccccc1CNC(=O)n1[nH]c2ccc(C(=O)O)cc2c1=O` [Example 53, 2-(2-Methyl-benzylcarbamoyl)-3-oxo-2,3-dihydro-1H-indazole-5-carboxylic acid] here?
A: Its melting point is > 250 °C.

Q: Which melting point does the source give for `Cc1ccccc1CNC(=O)n1[nH]c2c(C(=O)O)cccc2c1=O` [Example 55, 2-(2-Methyl-benzylcarbamoyl)-3-oxo-2,3-dihydro-1H-indazole-7-carboxylic acid] here?
A: Its melting point is > 250 °C.

Q: With `Cc1ccc(F)cc1CNC(=O)n1[nH]c2cccc(C(=O)O)c2c1=O` [Example 57, 2-(5-Fluoro-2-methyl-benzylcarbamoyl)-3-oxo-2,3-dihydro-1H-indazole-4-carboxylic acid] as the molecule, how does the melting point read?
A: The melting point was 230 °C (dec.).

Q: With `Cc1ccc(F)cc1CNC(=O)n1[nH]c2c(C(=O)O)cccc2c1=O` [Example 58, 2-(5-Fluoro-2-methyl-benzylcarbamoyl)-3-oxo-2,3-dihydro-1H-indazole-7-carboxylic acid] as the molecule, how does the melting point read?
A: The melting point was > 250 °C.

Q: With `Cc1cccc(C)c1CNC(=O)n1[nH]c2cccc(C(=O)O)c2c1=O` [Example 59, 2-(2,6-Dimethyl-benzylcarbamoyl)-3-oxo-2,3-dihydro-1H-indazole-4-carboxylic acid] as the molecule, how does the melting point read?
A: The melting point was > 250 °C.

Q: For `Cc1cccc(C)c1CNC(=O)n1[nH]c2c(C(=O)O)cccc2c1=O` [Example 60, 2-(2,6-Dimethyl-benzylcarbamoyl)-3-oxo-2,3-dihydro-1H-indazole-7-carboxylic acid], which melting point is on record?
A: The melting point was > 250 °C.

Q: Which melting point does the source give for `CCc1cccc(C)c1CNC(=O)n1[nH]c2cccc(C(=O)O)c2c1=O` [Example 61, 2-(2-Ethyl-6-methyl-benzylcarbamoyl)-3-oxo-2,3-dihydro-1H-indazole-4-carboxylic acid] here?
A: The melting point was > 250 °C.

Q: Which melting point does the source give for `CCc1cccc(C)c1CNC(=O)n1[nH]c2ccc(C(=O)O)cc2c1=O` [Example 62, 2-(2-Ethyl-6-methyl-benzylcarbamoyl)-3-oxo-2,3-dihydro-1H-indazole-5-carboxylic acid] here?
A: The melting point was > 250 °C.

Q: Which melting point does the source give for `CCc1cccc(C)c1CNC(=O)n1[nH]c2cc(C(=O)O)ccc2c1=O` [Example 63, 2-(2-Ethyl-6-methyl-benzylcarbamoyl)-3-oxo-2,3-dihydro-1H-indazole-6-carboxylic acid] here?
A: The melting point was > 250 °C.

Q: For `CCc1cccc(C)c1CNC(=O)n1[nH]c2c(C(=O)O)cccc2c1=O` [Example 64, 2-(2-Ethyl-6-methyl-benzylcarbamoyl)-3-oxo-2,3-dihydro-1H-indazole-7-carboxylic acid], which melting point is on record?
A: Its melting point is > 250 °C.

Q: For `CCCCc1ccc(CNC(=O)n2[nH]c3cccc(C(=O)O)c3c2=O)c(C)c1` [Example 68, 2-(4-Butyl-2-methyl-benzylcarbamoyl)-3-oxo-2,3-dihydro-1H-indazole-4-carboxylic acid], which melting point is on record?
A: The melting point was 173 to 175 °C.

Q: With `CCc1cccc(CC)c1CNC(=O)n1[nH]c2cccc(C(=O)O)c2c1=O` [Example 69, 2-(2,6-Diethyl-benzylcarbamoyl)-3-oxo-2,3-dihydro-1H-indazole-4-carboxylic acid] as the molecule, how does the melting point read?
A: The melting point was > 250 °C.

Q: Which melting point does the source give for `CCc1cccc(CC)c1CNC(=O)n1[nH]c2c(C(=O)O)cccc2c1=O` [Example 70, 2-(2,6-Diethyl-benzylcarbamoyl)-3-oxo-2,3-dihydro-1H-indazole-7-carboxylic acid] here?
A: The melting point was > 250 °C.

Q: For `CC(C)c1cccc(C(C)C)c1CNC(=O)n1[nH]c2c(C(=O)O)cccc2c1=O` [Example 72, 2-(2,6-Diisopropyl-benzylcarbamoyl)-3-oxo-2,3-dihydro-1H-indazole-7-carboxylic acid], which melting point is on record?
A: The melting point was > 250 °C.

Q: Which melting point does the source give for `O=C(O)c1cccc2[nH]n(C(=O)NCCCCc3ccccc3)c(=O)c12` [Example 75, 3-Oxo-2-(4-phenyl-butylcarbamoyl)-2,3-dihydro-1H-indazole-4-carboxylic acid] here?
A: Its melting point is > 250 °C.

Q: Which melting point does the source give for `O=C(O)c1cccc2[nH]n(C(=O)NCCCCC3CCCCC3)c(=O)c12` [Example 76, 2-(4-Cyclohexyl-butylcarbamoyl)-3-oxo-2,3-dihydro-1H-indazole-4-carboxylic acid] here?
A: Its melting point is 196 to 198 °C.

Q: With `CCCCCCNC(=O)n1[nH]c2cccc(C(=O)O)c2c1=O` [Example 78, 2-Hexylcarbamoyl-3-oxo-2,3-dihydro-1H-indazole-4-carboxylic acid] as the molecule, how does the melting point read?
A: The melting point was > 250 °C.

Q: For `CCc1cccc(C)c1CNC(=O)n1c(=O)c2cccc(C(=O)O)c2n1C` [Example 79, 2-(2-Ethyl-6-methyl-benzylcarbamoyl)-1-methyl-3-oxo-2,3-dihydro-1H-indazole-7-carboxylic acid], which melting point is on record?
A: Its melting point is > 250 °C.

Q: Which melting point does the source give for `CCc1cccc(C)c1CNC(=O)n1c(=O)c2cccc(C(=O)O)c2n1CC` [Example 80, 1-Ethyl-2-(2-ethyl-6-methyl-benzylcarbamoyl)-3-oxo-2,3-dihydro-1H-indazole-7-carboxylic acid] here?
A: Its melting point is > 250 °C.

Q: Which melting point does the source give for `CCCn1c2c(C(=O)O)cccc2c(=O)n1C(=O)NCc1c(C)cccc1CC` [Example 81, 2-(2-Ethyl-6-methyl-benzylcarbamoyl)-3-oxo-1-propyl-2,3-dihydro-1H-indazole-7-carboxylic acid] here?
A: The melting point was > 250 °C.

Q: Which melting point does the source give for `CCc1cccc(C)c1CNC(=O)n1c(=O)c2cccc(C(=O)O)c2n1CC(=O)O` [Example 82, 1-Carboxymethyl-2-(2-ethyl-6-methyl-benzylcarbamoyl)-3-oxo-2,3-dihydro-1H-indazole-7-carboxylic acid] here?
A: Its melting point is 172 to 174 °C.

Q: For `CCc1cccc(C)c1CNC(=O)n1c(=O)c2cccc(C(=O)O)c2n1CC(=O)OC` [Example 83, 2-(2-Ethyl-6-methyl-benzylcarbamoyl)-1-methoxycarbonylmethyl-3-oxo-2,3-dihydro-1H-indazole-7-carboxylic acid], which melting point is on record?
A: The melting point was 220 to 222 °C.

Q: With `Cc1cccc(C(C)(C)C)c1CNC(=O)n1c(=O)c2cccc(C(=O)O)c2n1C` [Example 97, 2-(2-tert-Butyl-6-methyl-benzylcarbamoyl)-1-methyl-3-oxo-2,3-dihydro-1H-indazole-7-carboxylic acid] as the molecule, how does the melting point read?
A: The melting point was > 250 °C.

Q: For `CCc1cccc(CC)c1CNC(=O)n1c(=O)c2cccc(C(=O)O)c2n1C` [Example 98, 2-(2,6-Diethyl-benzylcarbamoyl)-1-methyl-3-oxo-2,3-dihydro-1H-indazole-7-carboxylic acid], which melting point is on record?
A: Its melting point is > 250 °C.

Q: With `CCCCCCNC(=O)n1[nH]c2cccc(C(=O)OC)c2c1=O` [Example 99, 2-Hexylcarbamoyl-3-oxo-2,3-dihydro-1H-indazole4-carboxylic acid methyl ester] as the molecule, how does the melting point read?
A: Its melting point is 63 to 65 °C.

Q: With `C=CCOC(=O)c1cccc2[nH]n(C(=O)NCCCCCC)c(=O)c12` [Example 100, 2-Hexylcarbamoyl-3-oxo-2,3-dihydro-1H-indazole-4-carboxylic acid allyl ester] as the molecule, how does the melting point read?
A: The melting point was 67 to 69 °C.
